Experimental data from patent US12473262B2, “Aryl hydrocarbon receptor activators” (Oregon State University, priority 2019, dated 2025).

Biological target: aryl hydrocarbon receptor (AhR) (Mus musculus (Mouse), UniProt P30561)
Experiment: AhR ligand screening: AhRE-luciferase reporter in transfected Hepa1 cells
Format: cell-based
Details: for Fold @ 1 nM: fold change of luciferase expression at 1 nM test compound relative to vehicle (0.1% DMSO); for Fold @ 100 nM: fold change of luciferase expression at 100 nM test compound relative to vehicle (0.1% DMSO); for Fold @ 10 uM: fold change of luciferase expression at 10 uM test compound relative to vehicle (0.1% DMSO); for Fold relative to benchmark @ 100 nM: luciferase expression at 100 nM test compound relative to 100 nM benchmark compound 11-cl-BBQ
Procedure, shortened: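 Mouse Hepa1 cells transfected with an AhRE-luciferase reporter were plated at 1×10^4 cells/well, grown overnight, then exposed to compounds. Cell lysates were assayed for luciferase by luminometry, with results given as fold induction over 0.1% DMSO vehicle.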

aryl hydrocarbon receptor (AhR), sequence (P30561 10-805): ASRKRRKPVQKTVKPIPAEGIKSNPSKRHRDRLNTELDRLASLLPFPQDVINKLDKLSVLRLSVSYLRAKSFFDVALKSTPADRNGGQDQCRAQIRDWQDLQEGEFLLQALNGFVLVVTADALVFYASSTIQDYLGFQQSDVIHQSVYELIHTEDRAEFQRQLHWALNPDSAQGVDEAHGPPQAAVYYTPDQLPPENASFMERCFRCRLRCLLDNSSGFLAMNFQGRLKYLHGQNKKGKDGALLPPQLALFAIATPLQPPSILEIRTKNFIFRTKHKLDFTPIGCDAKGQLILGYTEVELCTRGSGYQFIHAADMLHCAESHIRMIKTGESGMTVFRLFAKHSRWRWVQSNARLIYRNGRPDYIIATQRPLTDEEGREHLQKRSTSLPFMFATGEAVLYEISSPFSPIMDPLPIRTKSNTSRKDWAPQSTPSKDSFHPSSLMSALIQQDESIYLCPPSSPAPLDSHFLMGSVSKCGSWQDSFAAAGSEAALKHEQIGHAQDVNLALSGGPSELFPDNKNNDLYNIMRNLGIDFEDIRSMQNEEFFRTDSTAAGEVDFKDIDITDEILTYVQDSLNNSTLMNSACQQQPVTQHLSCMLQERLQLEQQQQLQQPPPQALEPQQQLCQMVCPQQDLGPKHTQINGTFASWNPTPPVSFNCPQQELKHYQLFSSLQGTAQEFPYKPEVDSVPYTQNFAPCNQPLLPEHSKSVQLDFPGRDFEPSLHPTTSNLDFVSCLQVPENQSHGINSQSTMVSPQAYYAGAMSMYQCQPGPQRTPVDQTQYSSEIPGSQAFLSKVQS
aryl hydrocarbon receptor (AhR), sequence (P53762 whole entry partner): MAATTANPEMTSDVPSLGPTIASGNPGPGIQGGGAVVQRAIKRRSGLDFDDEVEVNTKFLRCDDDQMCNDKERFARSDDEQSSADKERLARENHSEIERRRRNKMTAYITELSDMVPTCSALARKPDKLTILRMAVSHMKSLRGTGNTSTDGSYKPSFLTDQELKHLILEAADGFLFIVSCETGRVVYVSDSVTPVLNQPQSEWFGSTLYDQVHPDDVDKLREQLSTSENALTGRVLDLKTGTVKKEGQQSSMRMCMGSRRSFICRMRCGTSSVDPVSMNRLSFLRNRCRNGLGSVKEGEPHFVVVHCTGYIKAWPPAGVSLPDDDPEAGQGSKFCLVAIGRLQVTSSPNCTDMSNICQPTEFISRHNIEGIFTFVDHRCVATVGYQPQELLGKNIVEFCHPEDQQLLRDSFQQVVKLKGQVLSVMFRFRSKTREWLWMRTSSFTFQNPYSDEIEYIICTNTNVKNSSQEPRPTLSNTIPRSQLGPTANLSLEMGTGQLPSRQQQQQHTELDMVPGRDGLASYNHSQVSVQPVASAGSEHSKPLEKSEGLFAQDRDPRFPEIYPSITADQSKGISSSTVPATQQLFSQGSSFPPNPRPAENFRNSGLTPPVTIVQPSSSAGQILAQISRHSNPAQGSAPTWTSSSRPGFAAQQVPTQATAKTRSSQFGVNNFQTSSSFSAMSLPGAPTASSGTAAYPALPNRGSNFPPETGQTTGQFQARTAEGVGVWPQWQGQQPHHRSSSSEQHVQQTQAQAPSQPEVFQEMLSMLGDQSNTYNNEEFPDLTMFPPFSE

Structure (SMILES)	Fold @ 1 nM	Fold @ 100 nM	Fold @ 10 uM	Fold relative to benchmark @ 100 nM
CCc1ccc(S(=O)(=O)n2c(-c3cccc4ccccc34)nc3cc(Cl)ccc32)cc1 [Compound 775]	1 fold	19 fold	25 fold	0.76 fold
O=C(c1ccccc1)n1c(-c2cccc3ccccc23)nc2cc(Br)ccc21 [Compound 691]	2 fold	26 fold	34 fold	1 fold
O=C(c1ccc(F)cc1F)n1c(-c2cccc3ccccc23)nc2cc(Cl)ccc21 [Compound 695]	1 fold	23 fold	30 fold	0.88 fold
O=C(c1ccccc1)n1c(-c2cccc3c2CCCC3)nc2cc(Cl)ccc21 [Compound 777]	1 fold	2 fold	6 fold	0.08 fold
COC(=O)c1ccc2[nH]c(-c3cccc4ccccc34)nc2c1 [Compound 1360]	1 fold	2 fold	18 fold	0.07 fold
O=C(c1cnc2ccccc2c1)n1c(-c2cccc3ccccc23)nc2ccc(Cl)cc21 [Compound 856]	1 fold	38 fold	46 fold	1.31 fold
O=C1c2ccccc2-c2nc3ccc(Cl)cc3n21 [Compound 488, 4-chloro-1,8-diazatetracyclo[7.7.0.0^2,7.0^10,15]hexadeca-2,4,6,8,10,12,14-heptaen-16-one]	1 fold	1 fold	4 fold	0.03 fold
O=C(c1ccncc1)n1c(-c2ccccc2)nc2ccc(Cl)cc21 [Compound 431]	1 fold	1 fold	8 fold	0.03 fold
O=C(c1ccc(F)c(F)c1)n1c(-c2cc3ccccc3o2)nc2cc(Cl)ccc21 [Compound 857]	1 fold	12 fold	75 fold	0.41 fold
O=S(=O)(C1CC1)n1c(-c2cccc3ccccc23)nc2cc(Cl)ccc21 [Compound 783]	1 fold	1 fold	24 fold	0.03 fold
COc1ccc(-c2nc3ccc(Cl)cc3n2C(=O)c2ccccc2)cc1 [Compound 497]	1 fold	1.5 fold	3.5 fold	0.05 fold
O=C(c1ccc2c(c1)nc(-c1cccc3ccccc13)n2S(=O)(=O)c1ccc2ccccc2c1)N1CCCCC1 [Compound 1340]	1 fold	1 fold	8 fold	0.03 fold
N#Cc1ccc(C(=O)c2c[nH]c3ccc(Cl)cc23)cc1 [Compound 874]	1 fold	7 fold	52 fold	0.13 fold
O=C(c1ccc(F)c(F)c1)n1c(-c2ccnc3ccccc23)nc2cc(Cl)ccc21 [Compound 767]	1 fold	2 fold	23 fold	0.08 fold
O=C(c1ccccc1)n1c(-c2ccc(F)c3ccccc23)nc2cc(Cl)ccc21 [Compound 863]	1 fold	2 fold	34 fold	0.07 fold
COc1ccc(C(=O)n2c(-c3cc4ccccc4s3)nc3cc(Cl)ccc32)cc1 [Compound 590]	1 fold	3 fold	45 fold	0.2 fold
COc1ccccc1S(=O)(=O)n1c(-c2cccc3ccccc23)nc2cc(C(=O)N3CCCCC3)ccc21 [Compound 1390]	1 fold	1 fold	3 fold	0.03 fold
O=C(c1cccc2ccccc12)c1c[nH]c2ccc(Cl)cc12 [Compound 364, (5-chloro-1H-indol-3-yl)(naphthalen-1-yl)methanone]	1 fold	2 fold	11 fold	0.05 fold
CC(C)(C)c1cccc(-c2nc3cc(Cl)ccc3n2C(=O)c2ccccc2)c1 [Compound 790]	1 fold	1 fold	2 fold	0.04 fold

Structure (SMILES)	Fold @ 1 nM	Fold @ 100 nM	Fold @ 10 uM	Fold relative to benchmark @ 100 nM
COC(=O)c1ccc2nc(-c3cccc4ccccc34)n(Cc3ccc(Cl)cc3)c2c1 [Compound 1407]	1 fold	1 fold	9 fold	0.03 fold
O=C(c1cc2cc(Cl)ccc2o1)c1cccc2ccccc12 [Compound 406, (5-chlorobenzofuran-2-yl)(naphthalen-1-yl)methanone]	1 fold	1 fold	7.5 fold	0.03 fold
COc1ccc(C(=O)n2c(-c3cccc(C(F)(F)F)c3)nc3cc(Cl)ccc32)cc1 [Compound 764]	1 fold	2 fold	20 fold	0.08 fold
O=C(c1ccc(SC(F)(F)F)cc1)n1c(-c2cccc3ccccc23)nc2cc(Cl)ccc21 [Compound 686]	1 fold	24 fold	31 fold	0.92 fold
CN1CCN(C(=O)c2ccc3nc(-c4cccc5ccccc45)n(S(=O)(=O)c4cccc(F)c4)c3c2)CC1 [Compound 1393]	1 fold	1 fold	4 fold	0.03 fold
CC(C)(C)c1cccc(-c2nc3cc(Cl)ccc3n2C(=O)c2ccc(F)c(F)c2)c1 [Compound 787]	1 fold	1 fold	4 fold	0.04 fold
N#Cc1ccc2c(c1)nc(-c1cccc3ccccc13)n2C(=O)c1ccccc1 [Compound 770]	1 fold	2 fold	2 fold	0.08 fold
Cn1cc(C(=O)c2cccc3ccccc23)c2cc(Cl)ccc21 [Compound 359, (5-chloro-1-methyl-1H-indol-3-yl)(naphthalen-1-yl)methanone]	1 fold	1 fold	6 fold	0.03 fold
O=C(c1ccc2nc(-c3cccc4ccccc34)n(S(=O)(=O)c3cccc(F)c3)c2c1)N1CCOCC1 [Compound 1357]	1 fold	1 fold	1 fold	0.03 fold
COC(=O)c1ccc2c(c1)nc(-c1cccc3ccccc13)n2S(=O)(=O)c1ccc(Cl)cc1 [Compound 1385]	1 fold	2 fold	5 fold	0.07 fold
Clc1ccc2c(c1)nc(-c1cccc3ccccc13)n2Cc1ccncc1 [Compound 876]	1 fold	3 fold	32 fold	0.06 fold
O=C(c1ccc(F)c(F)c1)n1c(-c2ccc(F)c(Cl)c2)nc2ccc(Cl)cc21 [Compound 581]	1 fold	1 fold	15 fold	0.07 fold
O=C(c1ccc(F)c(F)c1)n1c(-c2ccc(F)c(Cl)c2)nc2cc(Cl)ccc21 [Compound 580]	1 fold	3 fold	14 fold	0.2 fold
COC(=O)c1ccc2c(c1)nc(-c1cccc3ccccc13)n2C(=O)c1ccc(Cl)cc1Cl [Compound 1328]	1 fold	2 fold	11 fold	0.07 fold
Fc1cccc(F)c1Cn1c(-c2cccc3ccccc23)nc2cc(Cl)ccc21 [Compound 871]	1 fold	1 fold	12 fold	0.02 fold
Fc1ccc(Cn2c(-c3cccc4ccccc34)nc3ccc(Cl)cc32)cc1F [Compound 888]	1 fold	1 fold	9 fold	0.02 fold
O=C(c1cccc2ccccc12)n1ccc2cc(Cl)ccc21 [Compound 366]	1 fold	1 fold	11 fold	0.03 fold
O=C(c1cccc2ccccc12)n1c(-c2ccccc2)nc2cc(Cl)ccc21 [Compound 490, (5-chloro-2-phenyl-1H-benzo[d]imidazol-1-yl)(naphthalen-1-yl)methanone]	1 fold	1 fold	17 fold	0.03 fold
O=C(C1CC1)n1c(-c2cccc3ccccc23)nc2cc(Cl)ccc21 [Compound 773]	1 fold	25 fold	40 fold	1 fold
